Legend:
[1] = tested on: LPS-induced sepsis in C57/BL6 mice; test: LPS-induced murine model of sepsis; type: in vivo, mouse
Procedure: Male C57/BL6 mice (6–8 weeks of age) were purchased from Charles River (Beijing, China). The mice were maintained in a specific-pathogen-free (SPF) environment at 22 ± 1°C with relative 55 ± 10% humidity during the experiments. The assays were performed in conformity with the laws and regulations for live animal treatments at China Agricultural University.
The mice were randomly distributed into three groups (n = 12 each): control, LPS (E. coli, O111:B4, Sigma-Aldrich, USA) treatment, and CTP-NH2 pretreatment followed by LPS treatment (CTP-NH2 + LPS). For the first 7 days, CTP-NH2 (10 mg/kg mouse weight) was injected intraperitoneally once daily. Meanwhile, an equal volume of sterile saline was injected into mice in the control and LPS-treated groups. On day 7, LPS (10 mg/kg mouse weight) was injected intraperitoneally into mice in the LPS and CTP-NH2 + LPS groups to establish the sepsis animal model. The control group was intraperitoneally injected with an equal volume of saline. Sixteen hours after the LPS injection, the mice were euthanized by cervical dislocation, and samples of the […] were collected for analysis.
The mouse liver tissues were fixed in 4% paraformaldehyde, embedded in paraffin and cut into 5-μm-thick sections using an RM2235 microtome (Leica, Germany). The sections were stained with hematoxylin-eosin (H&E), and a DM3000 microscope was used to acquire images. LPS-induced liver injury was evaluated according to the following four categories: […]. The liver injury score was graded on a 0- to 4-point scale: 0, no injury; 1, up to 25% injury in the field; 2, up to 50% injury in the field; 3, up to 75% injury in the field; 4, diffuse injury ([43]).
For immunohistochemical analysis, the sections were blocked with PBS containing 1% w/v BSA for 1 h at room temperature. Afterwards, the sections were incubated with anti-CD177^+ antibody (1:100; Santa, USA). Samples were washed with PBS followed by incubation with horse-radish peroxidase (HRP)-conjugated rabbit anti-goat IgG (1:100; JIR, USA) at 4°C for 1 h. Subsequently, slides were stained with 3,3’-diaminobenzidine (DAB; DAKO, USA) and then counterstained with Harris hematoxylin. Finally, the samples were dehydrated in an alcohol gradient (70-100%) and cleared in xylene. All slides were mounted in neutral balsam.
The levels of tumor necrosis factor (TNF)-α, interleukin (IL)-6, and IL-1β in cell culture supernatants and the levels of TNF-α, IL-6, and IL-1β in the serum of mice were detected using commercial ELISA kits (eBioscience, San Diego, USA) according to the manufacturer’s instructions. The levels of serum alanine amino transferase (ALT) and aspartate amino transferase (AST) were detected using commercial reagent kits (Nanjing Jiancheng Bioengineering Institute, Nanjing, China). The activity of myeloperoxidase (MPO) in the liver of mice was detected using an ELISA kit (Boster, Wuhan, China) according to the manufacturer’s instructions.

TLR4/MD-2 complex = test: Surface plasmon resonance binding; conditions: SPR, Biacore X100, PBS with 0.05% Tween 20, 30 μl/min, 1:1 model, 0 to 10 μM
Procedure: SPR assays were performed using a Biacore X100 instrument (GE Healthcare, Pittsburgh, PA, USA). PBS containing 0.05% Tween 20 was used as the running buffer. The running buffer was continuously passed into the reaction chamber at 30 μl/min. Immobilization of CTP-NH2 on the chip surface was performed according to an amino coupling protocol. […] Running buffer was injected into the empty channel as a reference. To regenerate the chip surface at the end of each experiment, 10 mM Gly-HCl buffer (pH 2.5) was injected. ProteOn manager software (version 2.0) was used to analyze the experimental data. The binding curves were processed for the start injection alignment and baseline. A reference-subtracted sensorgram was then fitted to the curves describing a homogeneous 1:1 model. Data from the protein surfaces were grouped together to fit the association kinetic rate constant (Ka) and the dissociation rate constant (Kd). The equilibrium dissociation constant (KD) for the peptide-TLR4/MD-2 interaction was calculated as follows: […]

RWGRFLRKIRRFRRKDVT-NH2 [CTP-NH2, C-terminal amidated derivative peptide of CTP]
liver MPO activity ([1]; ELISA, 10 mg/kg i.p. pretreatment, LPS 10 mg/kg i.p., vs LPS-treated mice): significantly reduced this effect | infiltration of CD177+ neutrophils into the liver ([1]; immunohistochemistry, 10 mg/kg i.p. pretreatment, LPS 10 mg/kg i.p., vs LPS-treated group): significantly lower | serum TNF-α, IL-6 and IL-1β levels ([1]; male C57/BL6 mice, 10 mg/kg i.p. once daily 7 days (Figure 8 legend: 6 days), then LPS 10 mg/kg i.p., 16 h, ELISA, vs LPS-treated group): significantly decreased levels of TNF-α | severity of liver injury (H&E, liver injury score) ([1]; male C57/BL6 mice, 10 mg/kg i.p. once daily pretreatment, LPS 10 mg/kg i.p., score 0 to 4): attenuated | serum ALT and AST ([1]; male C57/BL6 mice, 10 mg/kg i.p. once daily pretreatment, LPS 10 mg/kg i.p., vs LPS-treated group): significantly attenuated these effects | Ka (association kinetic rate constant) (TLR4/MD-2 complex): 1.65e+07 M⁻¹ s⁻¹

— publication PMC7892475, “C-Terminal Amination of a Cationic Anti-Inflammatory Peptide Improves Bioavailability and Inhibitory Activity Against LPS-Induced Inflammation” (Frontiers in Immunology, 2021)
